Measured values published in ChEMBL document CHEMBL1201862, “PubChem BioAssay data set” (2004).
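All cell lines were grown in 96-well plates and treated with compound for 48 hours. GI50 = concentration required for 50% inhibition of growth.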 Activity calls are given as the source filed them. Cut-off read from the data, not from the text of the source: active = GI50 up to about 1.1 µM and inactive = higher.

Legend:
Test in all cases: growth of human tumour cells (NCI), 48 h
[1] = system: A498
[2] = system: LOX IMVI
[3] = system: SK-OV-3
[4] = system: NCI-H226
[5] = system: RXF 393
[6] = system: 786-0
[7] = system: M19-MEL
[8] = system: HCC 2998
[9] = system: XF498
[10] = system: RPMI-8226
[11] = system: SF-539
[12] = system: HCT-116
[13] = system: HOP-18
[14] = system: SK-MEL-28
[15] = system: SF-268
[16] = system: OVCAR-8
[17] = system: NCI-H522
[18] = system: SN12C
[19] = system: OVCAR-5
[20] = system: SW-620
[21] = system: K562
[22] = system: DLD-1
[23] = system: HT-29
[24] = system: NCI-H460
[25] = system: HOP-92
[26] = system: U-251
[27] = system: LXFL 529
[28] = system: KM-20L2
[29] = system: IGROV-1
[30] = system: OVCAR-4
[31] = system: HCT-15
[32] = system: M14
[33] = system: ACHN
[34] = system: NCI-H23
[35] = system: UO-31
[36] = system: TK-10
[37] = system: SNB-75
[38] = system: COLO 205
[39] = system: SK-MEL-2
[40] = system: SNB-78
[41] = system: SF-295
[42] = system: UACC-62
[43] = system: KM12
[44] = system: UACC-257
[45] = system: CCRF-CEM
[46] = system: EKVX
[47] = system: OVCAR-3
[48] = system: Malme-3M
[49] = system: HL-60
[50] = system: SNB-19
[51] = system: HOP-62
[52] = system: MOLT-4
[53] = system: A549
[54] = system: DMS-114
[55] = system: CAKI-1
[56] = system: SK-MEL-5
[57] = system: SR

How did the GI50 [1] turn out when `CCNc1nc2c(=O)n(C)c(=O)n(C)c2s1` was run?
Its GI50 is > 100 µM (inactive).

And the GI50 [2]?
The GI50 was > 100 µM (inactive).

What about the GI50 [3] of the same compound?
Its GI50 is > 100 µM (inactive).

And the GI50 [4]?
The GI50 was > 100 µM (inactive).

And the GI50 [5]?
The GI50 was > 100 µM (inactive).

What about the GI50 [6] of the same compound?
Its GI50 is > 100 µM (inactive).

What about the GI50 [7] of the same compound?
Its GI50 is > 100 µM (inactive).

What about the GI50 [8] of the same compound?
Its GI50 is > 100 µM (inactive).

What about the GI50 [9] of the same compound?
The GI50 was > 100 µM (inactive).

What about the GI50 [10] of the same compound?
The GI50 was > 100 µM (inactive).

And the GI50 [11]?
Its GI50 is > 100 µM (inactive).

And the GI50 [12]?
Its GI50 is > 100 µM (inactive).

And the GI50 [13]?
The GI50 was > 100 µM (inactive).

What about the GI50 [14] of the same compound?
Its GI50 is > 100 µM (inactive).

What about the GI50 [15] of the same compound?
The GI50 was > 100 µM (inactive).

And the GI50 [16]?
The GI50 was > 100 µM (inactive).

And the GI50 [17]?
Its GI50 is > 100 µM (inactive).

And the GI50 [18]?
The GI50 was > 100 µM (inactive).

And the GI50 [19]?
Its GI50 is > 100 µM (inactive).

And the GI50 [20]?
The GI50 was > 100 µM (inactive).

And the GI50 [21]?
The GI50 was > 100 µM (inactive).

What about the GI50 [22] of the same compound?
The GI50 was > 100 µM (inactive).

And the GI50 [23]?
Its GI50 is > 100 µM (inactive).

What about the GI50 [24] of the same compound?
Its GI50 is > 100 µM (inactive).

And the GI50 [25]?
Its GI50 is > 100 µM (inactive).

And the GI50 [26]?
The GI50 was > 100 µM (inactive).

What about the GI50 [27] of the same compound?
Its GI50 is > 100 µM (inactive).

And the GI50 [28]?
The GI50 was > 100 µM (inactive).

What about the GI50 [29] of the same compound?
Its GI50 is > 100 µM (inactive).

What about the GI50 [30] of the same compound?
The GI50 was > 100 µM (inactive).

And the GI50 [31]?
Its GI50 is > 100 µM.

What about the GI50 [32] of the same compound?
The GI50 was > 100 µM (inactive).

What about the GI50 [33] of the same compound?
Its GI50 is > 100 µM (inactive).

What about the GI50 [34] of the same compound?
The GI50 was > 100 µM (inactive).

What about the GI50 [35] of the same compound?
The GI50 was > 100 µM (inactive).

What about the GI50 [36] of the same compound?
Its GI50 is > 100 µM (inactive).

What about the GI50 [37] of the same compound?
Its GI50 is > 100 µM (inactive).

What about the GI50 [38] of the same compound?
Its GI50 is > 100 µM (inactive).

And the GI50 [39]?
Its GI50 is > 100 µM (inactive).

And the GI50 [40]?
Its GI50 is > 100 µM (inactive).

What about the GI50 [41] of the same compound?
The GI50 was > 100 µM (inactive).

And the GI50 [42]?
The GI50 was > 100 µM (inactive).

What about the GI50 [43] of the same compound?
The GI50 was > 100 µM (inactive).

And the GI50 [44]?
Its GI50 is > 100 µM (inactive).

What about the GI50 [45] of the same compound?
The GI50 was > 100 µM (inactive).

What about the GI50 [46] of the same compound?
Its GI50 is > 100 µM (inactive).

What about the GI50 [47] of the same compound?
The GI50 was > 100 µM (inactive).

What about the GI50 [48] of the same compound?
Its GI50 is > 100 µM (inactive).

What about the GI50 [49] of the same compound?
The GI50 was > 100 µM (inactive).

What about the GI50 [50] of the same compound?
The GI50 was > 100 µM (inactive).

And the GI50 [51]?
Its GI50 is > 100 µM (inactive).

What about the GI50 [52] of the same compound?
The GI50 was > 100 µM (inactive).

And the GI50 [53]?
Its GI50 is > 100 µM (inactive).

With `COc1cccc(NC(=O)C(=O)C2C=CCS2(=O)=O)c1` (stereo not drawn) as the compound, how does the GI50 [1] read?
The GI50 was > 100 µM (inactive).

What about the GI50 [2] of the same compound?
Its GI50 is > 100 µM (inactive).

And the GI50 [3]?
Its GI50 is > 100 µM (inactive).

And the GI50 [4]?
The GI50 was > 100 µM (inactive).

What about the GI50 [5] of the same compound?
The GI50 was > 100 µM (inactive).

What about the GI50 [6] of the same compound?
The GI50 was > 100 µM (inactive).

And the GI50 [54]?
The GI50 was > 100 µM (inactive).

And the GI50 [7]?
The GI50 was > 100 µM (inactive).

And the GI50 [8]?
The GI50 was > 100 µM (inactive).

What about the GI50 [9] of the same compound?
The GI50 was > 100 µM (inactive).

And the GI50 [10]?
The GI50 was > 100 µM (inactive).

What about the GI50 [11] of the same compound?
Its GI50 is > 100 µM (inactive).

And the GI50 [12]?
The GI50 was > 100 µM (inactive).

And the GI50 [13]?
The GI50 was > 100 µM (inactive).

And the GI50 [14]?
Its GI50 is > 100 µM (inactive).

And the GI50 [15]?
The GI50 was > 100 µM (inactive).

And the GI50 [16]?
Its GI50 is 53.8 µM (inactive).

And the GI50 [17]?
The GI50 was > 100 µM (inactive).

What about the GI50 [18] of the same compound?
The GI50 was > 100 µM (inactive).

What about the GI50 [55] of the same compound?
The GI50 was > 100 µM (inactive).

What about the GI50 [19] of the same compound?
The GI50 was > 100 µM (inactive).

And the GI50 [20]?
The GI50 was > 100 µM (inactive).

And the GI50 [21]?
Its GI50 is > 100 µM (inactive).

What about the GI50 [22] of the same compound?
The GI50 was > 100 µM (inactive).

And the GI50 [23]?
The GI50 was > 100 µM (inactive).

And the GI50 [24]?
The GI50 was > 100 µM (inactive).

And the GI50 [26]?
The GI50 was > 100 µM (inactive).

What about the GI50 [56] of the same compound?
The GI50 was > 100 µM (inactive).

And the GI50 [27]?
The GI50 was > 100 µM (inactive).

And the GI50 [28]?
The GI50 was > 100 µM (inactive).

What about the GI50 [29] of the same compound?
The GI50 was > 100 µM (inactive).

And the GI50 [30]?
The GI50 was > 100 µM (inactive).

What about the GI50 [31] of the same compound?
Its GI50 is > 100 µM.

And the GI50 [32]?
Its GI50 is > 100 µM (inactive).

What about the GI50 [33] of the same compound?
The GI50 was > 100 µM (inactive).

What about the GI50 [34] of the same compound?
The GI50 was > 100 µM (inactive).

And the GI50 [35]?
Its GI50 is > 100 µM (inactive).

And the GI50 [57]?
Its GI50 is > 100 µM (inactive).

And the GI50 [36]?
The GI50 was > 100 µM (inactive).

What about the GI50 [37] of the same compound?
The GI50 was 56 µM (inactive).

What about the GI50 [38] of the same compound?
Its GI50 is > 100 µM (inactive).

And the GI50 [39]?
Its GI50 is > 100 µM (inactive).

What about the GI50 [41] of the same compound?
The GI50 was > 100 µM (inactive).

And the GI50 [42]?
Its GI50 is > 100 µM (inactive).

And the GI50 [43]?
The GI50 was > 100 µM (inactive).

And the GI50 [44]?
The GI50 was > 100 µM (inactive).

And the GI50 [45]?
The GI50 was > 100 µM (inactive).

And the GI50 [46]?
The GI50 was > 100 µM (inactive).

What about the GI50 [47] of the same compound?
Its GI50 is > 100 µM (inactive).

What about the GI50 [48] of the same compound?
Its GI50 is > 100 µM (inactive).

And the GI50 [49]?
The GI50 was > 100 µM (inactive).

What about the GI50 [50] of the same compound?
The GI50 was > 100 µM (inactive).

What about the GI50 [51] of the same compound?
Its GI50 is > 100 µM (inactive).

What about the GI50 [52] of the same compound?
Its GI50 is > 100 µM (inactive).

What about the GI50 [53] of the same compound?
The GI50 was > 100 µM (inactive).
